Test results taken from US9657031B2, “Ant-ligands molecules and biological applications” (MITOLOGICS, priority 2008, dated 2017).

Legend:
[1] = tested on: HT-29 and BxPC3 tumor cell lines; assay: Multiparametric analysis of cell death (flow cytometry) on tumor cell lines; type: cell-based, human; details: for effect of caspase / cathepsin B inhibitors on apoptosis induced by the ANT-ligand: z-VAD-fmk, Q-VD-OPH, Z-FA-fmk, Bax/Bak deletion
Protocol: FIG. 2: The ANT-ligand is pro-apoptotic on HT-29 and BxPC3 tumor cell lines • (A) Chemical structure of compound 1 • (B) Multiparametric analysis (chromatin condensation, mitochondrial transmembrane potential (L′m) loss, plasma membrane permeabilization, phosphatidylserine exposure) of cellular effects of the ANT-ligand on BxPC3 cell line after 48 h treatment. • (C) Effects of compound 1 on ADP/ATP translocator activity of ANT measured on isolated mitochondria from mice liver or HT-29 tumor cell line (IC50 is given in μM based on ANT assays) and on viability of HT-29 and BxPC3 tumor cell lines (LD50 is given in μM based on MTT assays at 48 h).
(§1) MTT assay was used to evaluate the viability of a large range of human cell lines in presence of small molecules. Dose-response experiments allow us to determine a lethal-dose 50 (LD50; dose killing 50% of the cellular population) for each compound on a particular cell type after a 48-hour incubation. This viability assay is used as a first screening assay to identify cell-permeant molecules able to induce cell death (cytotoxic) or growth delay (cytostatic) among the 956 molecules of the ANT-ligands library. We have chosen to select molecules having an LD50 below 50 μM on HT-29 (colon adenocarcinoma) or BxPC3 (pancreatic adenocarcinoma) cell lines. These molecules come into the ANT activity screening assays and the efficient ANT-inhibitors (IC50 below 50 μM) are investigated for their mechanisms of cell death induction. Indeed, the characterisation of cell death consists in a multiparametric analysis of treated-cells by flow cytometry (FacsCalibur, Becton Dickinson) where can be measured (1) the loss of mitochondrial trans-membrane potential (L′m; DIOC6 labelling), (2) the plasma membrane permeabilization (Propidium Iodide labeling) and (3) the phosphatidylserines exposure (Annexin-V-fitc labelling).

[2] = tested on: S. cerevisiae WT (W303) and JL1-3 (ΔANT 1, 2 & 3) strains; assay: Clonogenic assays on S. cerevisiae strains deficient for ANT isoforms; type: cell-based; details: ΔANT 1, 2 & 3 vs WT; viability at 48 h after 2 h incubation
Protocol: The importance of ANT isoforms in cytotoxic effects of the selected ANT-ligands has been evaluated using S. cerevisiae strains deficient for ANT isoforms (FIG. 5). Clonogenic assays on these strains are used to ensure that cytotoxic effects of the ANT-ligands are really due to the expression of ANTs in the cells.
FIG. 5: Target validation of compound 1 using ANT-deficient yeasts • (A) Quantitative estimation of yeasts viability at 48 h after 2 h incubation with compound 1 • (B) Illustration of WT (W303) and JL1-3 (LANT1, 2 and 3) yeast strains growth on plates at 48 h after 2 h incubation with compound 1.

[3] = tested on: Wi-38 (normal lung fibroblasts); assay: Multiparametric analysis of cellular effects on Wi-38 cell line; type: cell-based; details: Wi-38, compared to HT-29, BxPC3, 48 h and 72 h treatments
Protocol: FIG. 4: Compound 1 induces low toxicity on normal fibroblast Wi-38 • A) Expression pattern of ANT isoforms in HT-29, BxPC3 and Wi-38 (normal lung fibroblasts) cell lines after RT-PCR reaction on total RNA • (B) Multiparametric analysis (mitochondrial transmembrane potential, plasma membrane permeabilization, phosphatidylserine exposure) of cellular effects of the ANT-ligand on Wi-38 cell line after 48 h and 72 h treatments.
as §1, with “We have chosen to select molecules having an LD50 below 50 μM on HT-29 (colon adenocarcinoma) or BxPC3 (pancreatic adenocarcinoma) cell lines. These molecules come into the ANT activity screening assays and the efficient ANT-inhibitors (IC50 below 50 μM) are investigated for their mechanisms of cell death induction.” left out

lymphocytes (PBMC) = assay: Toxicity on lymphocytes (PBMC); type: cell-based; details: doses below 400 μM; data not shown

## O=C(O)CCCCn1c(SCc2ccccc2Cl)nc2ccsc2c1=O [Compound 1]
[1]; multiparametric analysis
  apoptosis hallmarks (mitochondrial potential loss, phosphatidylserine exposure, plasma membrane permeabilization, chromatin condensation): induces classical hallmarks of apoptosis
[1]; tumor cells
  mitochondrial trans-membrane potential: induces dissipation of the mitochondrial trans-membrane potential
[1]
  effect of caspase / cathepsin B inhibitors on apoptosis induced by the ANT-ligand: inhibited by pan-caspase inhibitors (z-VAD-fmk, Q-VD-OPH) but not by the cathepsin B inhibitor (Z-FA-fmk)
[1]; listed as compound 1
  effect of caspase / cathepsin B inhibitors on apoptosis induced by the ANT-ligand: abolished by caspase inhibitors
[2]
  resistance of ANT-deficient yeast strain versus wild-type: more resistant to the compound 1 than the wild-type (WT) control strain
[3]
  toxicity on normal lung fibroblasts: low toxicity
[3]; listed as compound 1
  toxicity on normal lung fibroblasts: minor compared to tumor cells
Lymphocytes (PBMC)
  toxicity on lymphocytes (PBMC): no sign of toxicity
